Holding throughout (test): Kinase panel study
What all share (assay type): biochemical
Conditions in all cases: read-out: Percentage of inhibition; for inhibition at 1 µM: 1000nM; for inhibition at 10 µM: 10000nM

In test [1] the target is T1, JAK2 JH1 JH2 V617F (Homo sapiens, UniProt O60674, V617F).
T1 construct: JAK2 JH1 JH2 V617F; purchased Thermo Fisher Scientific
A digest of the protocol:
(§1)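 Percent inhibition of each kinase by the test compound, given at either 1 µM or 10 µM, came from a contracted panel run by ZLyte or Adapta protocol.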

Test [2] deals with T2, TBK1 (Homo sapiens, UniProt Q9UHD2).
T2 construct: purchased Thermo Fisher Scientific
T2 sequence (Q9UHD2 1-729): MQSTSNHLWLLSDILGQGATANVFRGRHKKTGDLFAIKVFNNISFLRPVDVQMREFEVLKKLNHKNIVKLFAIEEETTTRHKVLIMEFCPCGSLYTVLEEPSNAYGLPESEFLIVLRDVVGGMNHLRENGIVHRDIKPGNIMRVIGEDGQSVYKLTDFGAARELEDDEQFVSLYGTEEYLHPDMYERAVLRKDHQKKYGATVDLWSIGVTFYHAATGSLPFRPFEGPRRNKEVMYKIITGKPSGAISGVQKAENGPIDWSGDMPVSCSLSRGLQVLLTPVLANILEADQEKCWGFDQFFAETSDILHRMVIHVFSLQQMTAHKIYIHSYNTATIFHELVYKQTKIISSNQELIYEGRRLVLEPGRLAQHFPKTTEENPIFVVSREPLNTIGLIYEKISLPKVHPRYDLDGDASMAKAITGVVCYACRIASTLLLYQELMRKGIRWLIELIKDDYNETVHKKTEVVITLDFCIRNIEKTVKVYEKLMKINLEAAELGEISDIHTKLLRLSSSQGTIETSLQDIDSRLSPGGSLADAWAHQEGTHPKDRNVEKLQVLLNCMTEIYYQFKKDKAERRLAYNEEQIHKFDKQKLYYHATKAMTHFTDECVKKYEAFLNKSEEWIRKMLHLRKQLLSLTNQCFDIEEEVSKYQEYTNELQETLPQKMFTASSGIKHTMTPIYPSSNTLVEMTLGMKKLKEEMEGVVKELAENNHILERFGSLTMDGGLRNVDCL
A digest of the protocol: as §1

Test [3] addresses T3, AMPK A1/B1/G1 (Homo sapiens, UniProt Q13131).
T3 construct: purchased Thermo Fisher Scientific
A digest of the protocol: as §1

Test [4] has as its target T4, ADRBK2 (GRK3) (Homo sapiens, UniProt P35626).
T4 construct: purchased Thermo Fisher Scientific
T4 sequence (P35626 1-688): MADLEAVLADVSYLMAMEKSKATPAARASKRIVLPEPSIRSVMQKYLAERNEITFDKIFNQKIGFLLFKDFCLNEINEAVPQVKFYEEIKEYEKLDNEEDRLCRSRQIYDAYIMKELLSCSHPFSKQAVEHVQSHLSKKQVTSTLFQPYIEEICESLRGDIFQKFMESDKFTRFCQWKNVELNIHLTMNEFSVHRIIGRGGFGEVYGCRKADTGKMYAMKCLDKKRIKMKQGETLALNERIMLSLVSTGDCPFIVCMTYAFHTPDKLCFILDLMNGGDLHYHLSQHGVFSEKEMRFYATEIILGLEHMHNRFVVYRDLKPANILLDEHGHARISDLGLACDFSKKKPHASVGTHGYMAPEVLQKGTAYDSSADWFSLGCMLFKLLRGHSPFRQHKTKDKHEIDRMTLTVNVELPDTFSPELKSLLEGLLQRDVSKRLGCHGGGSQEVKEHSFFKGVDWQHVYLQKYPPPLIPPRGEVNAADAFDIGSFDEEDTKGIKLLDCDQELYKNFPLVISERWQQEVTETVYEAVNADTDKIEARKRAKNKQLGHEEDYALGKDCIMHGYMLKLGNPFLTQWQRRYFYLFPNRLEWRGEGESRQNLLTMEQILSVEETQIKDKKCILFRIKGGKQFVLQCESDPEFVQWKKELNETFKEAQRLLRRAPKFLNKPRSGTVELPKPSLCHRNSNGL
Summed up:
as §1

For test [5], the target named is T5, PIK3CA E545K/PIK3R1 (p11 0 alpha E545K/p85 alpha) (Homo sapiens, UniProt P42336, E545K).
T5 construct: purchased Thermo Fisher Scientific
Summed up:
as §1

Test [6] concerns the target T6, ERBB4 (HER4) (Homo sapiens, UniProt Q15303).
T6 construct: purchased Thermo Fisher Scientific
A digest of the protocol: as §1

The target in test [7] is T7, PDGFRA D842V (Homo sapiens, UniProt P16234, D842V).
T7 construct: purchased Thermo Fisher Scientific
Summed up: as §1

T7 sequence (P16234 24-1089 D842V): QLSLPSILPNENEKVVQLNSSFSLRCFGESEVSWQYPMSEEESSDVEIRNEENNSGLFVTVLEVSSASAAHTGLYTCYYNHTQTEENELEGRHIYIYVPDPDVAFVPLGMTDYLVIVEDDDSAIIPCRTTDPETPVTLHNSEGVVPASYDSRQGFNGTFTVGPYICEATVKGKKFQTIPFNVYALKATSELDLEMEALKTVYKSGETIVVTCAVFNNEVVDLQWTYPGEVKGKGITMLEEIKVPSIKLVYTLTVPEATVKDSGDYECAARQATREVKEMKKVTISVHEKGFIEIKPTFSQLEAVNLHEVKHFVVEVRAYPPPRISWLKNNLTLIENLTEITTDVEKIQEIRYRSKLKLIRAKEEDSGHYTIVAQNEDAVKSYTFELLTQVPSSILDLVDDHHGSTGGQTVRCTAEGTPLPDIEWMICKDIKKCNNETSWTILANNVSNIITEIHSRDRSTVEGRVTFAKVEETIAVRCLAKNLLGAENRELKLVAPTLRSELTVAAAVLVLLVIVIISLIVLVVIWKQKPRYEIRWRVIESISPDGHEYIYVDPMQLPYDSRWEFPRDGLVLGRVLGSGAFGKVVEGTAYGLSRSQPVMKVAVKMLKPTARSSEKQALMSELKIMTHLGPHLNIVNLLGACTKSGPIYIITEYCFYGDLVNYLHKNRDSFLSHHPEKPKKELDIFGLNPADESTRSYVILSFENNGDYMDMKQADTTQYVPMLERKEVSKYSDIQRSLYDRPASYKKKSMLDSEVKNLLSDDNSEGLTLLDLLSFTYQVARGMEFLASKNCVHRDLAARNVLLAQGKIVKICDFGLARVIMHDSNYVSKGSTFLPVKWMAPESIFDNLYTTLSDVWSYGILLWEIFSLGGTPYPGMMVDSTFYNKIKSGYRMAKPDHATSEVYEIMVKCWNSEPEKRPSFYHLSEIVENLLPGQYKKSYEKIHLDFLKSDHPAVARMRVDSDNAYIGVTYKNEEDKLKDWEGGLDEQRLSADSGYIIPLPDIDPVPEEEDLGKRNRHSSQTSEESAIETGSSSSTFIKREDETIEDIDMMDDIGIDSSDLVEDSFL
T6 sequence (Q15303 26-1308): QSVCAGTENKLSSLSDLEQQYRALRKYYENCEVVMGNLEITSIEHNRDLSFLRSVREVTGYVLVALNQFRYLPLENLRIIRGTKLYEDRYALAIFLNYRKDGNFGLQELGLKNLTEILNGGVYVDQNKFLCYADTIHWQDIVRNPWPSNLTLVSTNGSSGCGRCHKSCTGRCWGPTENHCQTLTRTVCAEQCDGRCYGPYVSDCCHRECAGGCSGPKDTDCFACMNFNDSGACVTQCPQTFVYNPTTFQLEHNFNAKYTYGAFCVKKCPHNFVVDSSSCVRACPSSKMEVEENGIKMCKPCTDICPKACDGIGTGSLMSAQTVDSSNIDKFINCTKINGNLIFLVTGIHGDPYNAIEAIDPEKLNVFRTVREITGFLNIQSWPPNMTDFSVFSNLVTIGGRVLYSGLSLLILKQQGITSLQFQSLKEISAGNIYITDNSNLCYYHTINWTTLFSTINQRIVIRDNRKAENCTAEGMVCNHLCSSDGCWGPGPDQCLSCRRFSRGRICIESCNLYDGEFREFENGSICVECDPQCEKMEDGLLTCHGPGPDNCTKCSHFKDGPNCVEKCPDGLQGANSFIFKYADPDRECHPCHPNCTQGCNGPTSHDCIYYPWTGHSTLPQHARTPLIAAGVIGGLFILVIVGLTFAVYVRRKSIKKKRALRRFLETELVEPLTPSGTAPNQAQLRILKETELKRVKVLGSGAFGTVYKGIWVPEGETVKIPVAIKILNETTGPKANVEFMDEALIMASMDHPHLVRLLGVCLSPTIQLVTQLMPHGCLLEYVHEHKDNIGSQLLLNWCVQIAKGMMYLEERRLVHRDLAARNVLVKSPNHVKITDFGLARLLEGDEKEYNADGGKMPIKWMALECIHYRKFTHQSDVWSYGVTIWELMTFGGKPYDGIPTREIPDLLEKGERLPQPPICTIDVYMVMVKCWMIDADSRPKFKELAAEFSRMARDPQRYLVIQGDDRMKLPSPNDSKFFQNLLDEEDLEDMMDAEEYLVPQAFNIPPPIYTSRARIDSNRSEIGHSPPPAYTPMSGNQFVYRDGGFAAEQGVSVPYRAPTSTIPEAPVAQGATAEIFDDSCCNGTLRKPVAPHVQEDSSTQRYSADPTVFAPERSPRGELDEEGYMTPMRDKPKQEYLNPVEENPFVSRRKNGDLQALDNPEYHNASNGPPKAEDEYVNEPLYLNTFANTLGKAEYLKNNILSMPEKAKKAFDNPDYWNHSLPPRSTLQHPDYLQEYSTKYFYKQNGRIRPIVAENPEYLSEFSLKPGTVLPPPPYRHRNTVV
T3 sequence (Q13131 whole entry): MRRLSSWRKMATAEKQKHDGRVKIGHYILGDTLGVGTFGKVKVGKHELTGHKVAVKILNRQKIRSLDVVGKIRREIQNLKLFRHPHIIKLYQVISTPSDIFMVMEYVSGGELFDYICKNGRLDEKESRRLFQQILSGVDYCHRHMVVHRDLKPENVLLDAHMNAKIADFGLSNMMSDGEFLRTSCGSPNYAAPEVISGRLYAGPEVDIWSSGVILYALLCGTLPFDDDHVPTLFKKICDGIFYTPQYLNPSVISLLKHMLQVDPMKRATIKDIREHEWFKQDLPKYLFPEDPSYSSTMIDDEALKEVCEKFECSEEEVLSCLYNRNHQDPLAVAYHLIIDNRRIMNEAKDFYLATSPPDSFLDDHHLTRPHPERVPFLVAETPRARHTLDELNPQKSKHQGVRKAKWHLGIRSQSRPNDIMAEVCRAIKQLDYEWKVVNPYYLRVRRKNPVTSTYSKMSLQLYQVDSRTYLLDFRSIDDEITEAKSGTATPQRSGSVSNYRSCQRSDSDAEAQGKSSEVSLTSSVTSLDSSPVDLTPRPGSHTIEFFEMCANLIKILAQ
T3 sequence (Q9Y478 whole entry partner): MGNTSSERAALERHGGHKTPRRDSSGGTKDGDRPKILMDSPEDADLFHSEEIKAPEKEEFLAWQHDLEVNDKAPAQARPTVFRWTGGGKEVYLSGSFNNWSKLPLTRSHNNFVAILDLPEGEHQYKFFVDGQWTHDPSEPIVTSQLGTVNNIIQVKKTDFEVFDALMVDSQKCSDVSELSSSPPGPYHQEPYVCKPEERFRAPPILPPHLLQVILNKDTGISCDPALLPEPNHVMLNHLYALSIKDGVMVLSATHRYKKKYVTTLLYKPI
T3 sequence (P54619 whole entry partner): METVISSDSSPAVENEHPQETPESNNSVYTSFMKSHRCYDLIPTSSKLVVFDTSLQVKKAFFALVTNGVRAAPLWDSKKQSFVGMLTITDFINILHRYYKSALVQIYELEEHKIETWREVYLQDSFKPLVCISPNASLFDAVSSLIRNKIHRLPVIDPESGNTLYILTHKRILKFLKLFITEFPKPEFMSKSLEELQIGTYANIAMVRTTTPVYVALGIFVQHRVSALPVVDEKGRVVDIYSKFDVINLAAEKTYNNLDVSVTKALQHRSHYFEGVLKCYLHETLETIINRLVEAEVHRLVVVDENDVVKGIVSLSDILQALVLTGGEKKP
T1 sequence (O60674 532-1132 V617F limits assumed): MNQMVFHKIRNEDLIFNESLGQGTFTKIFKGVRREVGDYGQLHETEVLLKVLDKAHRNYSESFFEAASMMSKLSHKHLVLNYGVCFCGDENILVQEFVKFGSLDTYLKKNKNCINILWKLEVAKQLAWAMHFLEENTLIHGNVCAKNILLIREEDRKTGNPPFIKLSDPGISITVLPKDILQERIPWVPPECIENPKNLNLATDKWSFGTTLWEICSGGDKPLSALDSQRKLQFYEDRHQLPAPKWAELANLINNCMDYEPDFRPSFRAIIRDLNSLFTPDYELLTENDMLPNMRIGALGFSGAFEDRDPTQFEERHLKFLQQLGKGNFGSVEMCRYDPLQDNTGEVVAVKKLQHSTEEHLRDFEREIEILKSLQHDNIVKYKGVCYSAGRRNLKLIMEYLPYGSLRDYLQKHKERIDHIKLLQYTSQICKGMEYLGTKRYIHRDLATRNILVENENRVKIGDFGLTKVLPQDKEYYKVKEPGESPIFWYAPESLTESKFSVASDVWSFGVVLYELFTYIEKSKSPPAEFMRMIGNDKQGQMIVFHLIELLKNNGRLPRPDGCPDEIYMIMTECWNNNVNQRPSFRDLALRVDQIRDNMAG

Consider `COc1ccc2c(c1OC)c(=O)n1c3ccc(O)cc3c3ccnc2c31` [MW01, 5-Hydroxy-10,11-dimethoxy-9H-benzo[c]indolo[3,2,1-ij][1,5]naphthyridin-9-one], for which the inhibition – broadly, the drop in the measured response relative to a control, in per cent – at 1 µM in test [1] was 15%; in test [2], 8%; in test [3], 4%; in test [4], 0%; in test [5], 91%; in test [6], -3%. Besides, the inhibition at 1 µM in test [7] came to 3%. Moreover, the inhibition at 10 µM in test [1] was determined as 29%; in test [2] it was 17%; in test [3], 14%; in test [4], 5%; in test [5], 97%; in test [6] it was 4%. Further, in test [7], the inhibition at 10 µM was 35%.

On to `COc1ccc2cc3c(N)nn(C(=O)c4cccc(N(C)C)c4)c3nc2c1` [MW05, (3-Amino-7-methoxypyrazolo[3,4-b]quinolin-1-yl)-[3-(dimethylamino)phenyl]methanone], for which the inhibition at 1 µM in test [1] was found to be 1%; in test [2], 11%; in test [3] it was 6%; in test [4], 2%; in test [5], 15%; in test [6], 5%. Also, in test [7], the inhibition at 1 µM is -4%. Besides, the inhibition at 10 µM is -28% in test [1]; -8% in test [2]; -3% in test [3]; -3% in test [4]; 61% in test [5]; -11% in test [6]. The inhibition at 10 µM in test [7] was -2%.

The values above are taken from EP4467141A1, “PYRAZOLO-QUINOLINES AS SELECTIVE INHIBITORS OF GENOTOXIC STRESS-INDUCED IKK/NF- KB PATHWAYS FOR CANCER THERAPY” (Max-Delbrück-Centrum für Molekulare Medizin in der …, priority 2023, dated 2024).
